The results in this text go back to paper PMC5517430, “2,3,7,8-Tetrachlorodibenzo-p-dioxin (TCDD)-elicited effects on bile acid homeostasis: Alterations in biosynthesis, enterohepatic circulation, and microbial metabolism” (Scientific Reports, 2017).

One data set deals with bile acid mixture. Briefly: Hydrophobicity index (HIx) of bile acid mixtures in liver, serum and feces. The format is in vivo, mouse. The settings on record: male mice. From the text: In general, bile acid toxicity increases with hydrophobicity, [39], which depends on ionization, hydroxylation, and conjugation (taurine, glycine, sulfate, glucoronate)[40]. The potential toxicity of a bile acid mixture can be estimated by calculating the hydrophilic-hydrophobic balance using the hydrophobicity index (HIx) of each bile acid species in the mixture, as described by Heuman[41]. […] Consequently, the shift towards increased hydrophobicity is primarily driven by a decrease in the relative abundance of T-α-MCA, a highly hydrophilic species.

A further data set deals with serum ALP. Briefly: Serum alkaline phosphatase (ALP) activity, commercial kit. It is filed as in vivo, mouse. The following applies: male mice, 30 µg/kg TCDD every 4 d for 28 d. On the procedure: At 25d after the initial dose (PND53), fecal pellets from the previous 24 hours (h) were collected from each cage (4 mice per cage) and stored at −80 °C. At 28d after the initial exposure (PND56), mice (fasted for 6 h) were weighed and blood was collected from the submandibular vein prior to cervical dislocation. The gallbladder length, width, and depth were measured using a micro-caliper. Its volume was calculated assuming an ellipsoid shape: volume (µL) = length (mm) × width (mm) × depth (mm) × π/6[63], [64]. The distal ileum (10 cm section extending from the caecum toward the jejunum) was removed, flushed with Ca^2+/Mg^2+-free phosphate buffered saline (PBS; Sigma), and opened longitudinally. The epithelial lining was scraped into a vial containing TRIzol (Invitrogen, Carlsbad, CA), frozen in liquid nitrogen, and stored at −80 °C. Liver, gonadal white adipose tissue (gWAT), and brown adipose tissue were removed, weighed, frozen in liquid nitrogen, and stored at −80 °C. Serum alkaline phosphatase (ALP) activity was determined using a commercial kit (Pointe Scientific, Canton, MI).

As to `Clc1cc2c(cc1Cl)Oc1cc(Cl)c(Cl)cc1O2` [TCDD, 2,3,7,8-tetrachlorodibenzo-p-dioxin], in the data set with bile acid mixture (feces, TCDD), the “Shift of fecal bile acid mixture HIx” value is recorded as “moderate increase in hydrophobicity”. Besides, the “Shift of hepatic bile acid mixture HIx” value with bile acid mixture (liver, 3–30 µg/kg TCDD every 4 d for 28 d) was “toward greater hydrophobicity”. Besides, the “Shift of serum bile acid mixture HIx” value in the data set with bile acid mixture (serum, TCDD every 4 d for 28 d) is “more hydrophilic”. Moreover, in the data set on serum ALP, the “Serum alkaline phosphatase (ALP) activity” value is recorded as “unchanged”.
